As for `CCC1(CCCCN2CCN(c3ccc(F)c(Cl)c3)CC2)C(=O)Nc2ccccc21` (centres undefined), the melting point was 121 to 124 °C.
`O=C(CC(CSC(=O)c1ccccc1)C(=O)O)c1ccccc1` (centres undefined) yielded a melting point of 110 to 111 °C.
Then `CCCCN(CCCC)c1ccc(C=Cc2ccc(C=CC3=C(C#N)C(=C(C#N)C#N)OC3(c3ccccc3)C(F)(F)F)cc2)c(OC)c1` (centres undefined), with 176 to 178 °C; and `CCOC(=O)c1ccc(OCC2CN(c3nnc(C)s3)CCO2)cc1` (centres undefined), with 112 °C.
Under `CCOC(=O)C(C#N)=NOC(=O)OCC(Cl)(Cl)Cl` stands 51 to 53 °C.
Then `CCOC(=O)Cc1ccc(-c2nc(COc3ccc(COc4nn(-c5ccccc5)cc4/C=C\c4cnn(CC)c4)cc3OC)c(C)o2)cc1`, with 140 to 141 °C; and `COc1ccc(-c2ccccc2)cc1NC(=S)c1ncc[nH]1`, with 223 to 226 °C.
Regarding `COC(=O)C(=O)c1ccc(OCc2ccc3ccccc3n2)cc1`, the melting point lay in the range of 109 to 110 °C.
In the case of `O=[N+]([O-])c1ccc(SSc2ncccn2)c(C(Cl)(Cl)Cl)c1`, the melting point lay within 98 to 99 °C.
Then `O=C1N(Cc2ccc(Br)cn2)c2ccccc2C12COc1cc3c(cc12)OCCO3` (centres undefined), with 201 to 202 °C.
Then `CC(C)(C)c1nn(-c2c(Cl)cc(C(F)(F)F)cc2Cl)c(N)c1Br`, with 228 to 231 °C; and `COc1ccc(-c2cccc(-c3nc(-c4ccc(C(F)(F)F)cc4)oc3C)c2)cc1`, with 93 to 94 °C.
In turn, `COc1ncc(F)c2n[nH]c(=S)n12` gave a melting point of 166 °C.
Then `COc1cc(-c2nc(NC(C)C)c3c(C)c(C#N)sc3n2)cc(OC)c1OC`, with 191 to 193 °C.
Under `N#CCC(=O)OC(COc1ccc(C(=O)c2ccccc2)c(O)c1)COc1ccc(C(=O)c2ccccc2)c(O)c1` stands 167 to 168 °C; under `COc1ccc(Cl)cc1C(=O)NCCc1ccc(-c2ccc(OC(C)(C)CO)cc2)cc1`, 115 °C.
Under `COC(=O)C(C)(Cc1ccc(Cl)nc1)C(=O)OC` stands 80 to 81 °C; under `CNC(=O)N1CCC(Oc2ccc(C(F)(F)F)cc2)(c2ccccc2)CC1`, 118 to 120 °C; under `COC(=O)C(=O)C12CC3CC(CC(O)(C3)C1)C2`, 164 to 166 °C.
The compound `COc1ccc(CCN(C)CCCCc2ccc(NC(=O)c3cccc4c(=O)c5cccc(OC)c5[nH]c34)cc2)cc1` gave a melting point of 182 °C.
Then `Cc1ccc2[nH]c3c(cc(-c4ccc(O)cc4)c(=O)n3C)c2c1`, with 186 °C; and `CC(C)c1c(C(=O)Nc2ccccc2)c(-c2ccc(F)cc2)cn1-c1ccccc1`, with 192 to 194 °C; and `Cc1ccc(-c2nn(CCCO)c(N)c2C(N)=O)cc1`, with 164 to 165 °C.
Under `Nc1cc2c(cc1N)OC(F)(Cl)C(F)(Cl)O2` (centres undefined) stands 130 to 131 °C; under `N#Cc1cc(C(=O)CC(O)(c2cc(Cl)cc(Cl)c2)C(F)(F)F)ccc1F` (centres undefined), 146 to 147 °C; under `Cc1ccc([N+](=O)[O-])c2c1CC(C)O2` (centres undefined), 69 to 71 °C.
Under `NCc1cccc(Cn2ccc(OCc3ccc(F)cc3)c(Br)c2=O)c1` stands 127 to 139 °C; under `Cc1cc(C(F)F)c2c(n1)C(O)CCC2` (centres undefined), 101 to 104 °C.
Compound `CC(C)NC(=O)Nc1cc(C(C)(C)C)on1` displayed a melting point of 135 to 138 °C.
Then `Nc1nc(Cl)cc(NCCO)n1`, with 143 to 146 °C; and `O=C(Cc1cccnc1)[N+]1([O-])CCC(C2c3ccc(Cl)cc3CCc3cccnc32)CC1` (centres undefined), with 117 to 118 °C.
Then `COc1ccc(Nc2cc(NC(C)C)ncn2)cc1`, with 180 to 182 °C; and `CCOC(=O)CCCCCCCn1c(-c2ccccc2)c(-c2ccccc2)[nH]c1=O`, with 78 to 79 °C.
On to `Cc1nn(-c2ccccn2)cc1CO`, for which the melting point is 116 to 117 °C.
Regarding `COc1ccc(CCNC(=S)Cc2nnnn2C)cc1OC`, the melting point was in the range of 90 to 92 °C.
Under `CNC1=Nc2sc(Cl)cc2C(c2ccccc2Cl)=NC1` stands 259 to 262 °C; under `COc1cc(Cl)c(CO)c(Cl)c1`, 71 to 72 °C.
Then `CC(C)C[C@@H](NC(=O)c1cnc(N2CCC(N3C(=O)OCc4ccccc43)CC2)c(Cl)c1)C(N)=O`, with 139 to 142 °C; and `CCOC(=O)c1[nH]c(C)nc1C`, with 165 to 166 °C; and `CCOC(=O)C(N=C(c1ccc(Cl)cc1)c1ccc(OC)cc1O)C(=O)OCC`, with 73 to 75 °C.
Then `CN(C)CCNC(=O)N1CCN(c2ccccc2)CC1`, with 88 to 90 °C; and `ClCc1c2ccccc2c(Cc2ccccc2)c2ccccc12`, with 146 to 147 °C.
`Cc1ccccc1[C@H]1O[C@H](CC(=O)O)C(=O)N(CC(C)C)c2ccccc21` (relative stereo) returned a melting point of 192 to 195 °C.
Under `CCCCCCCC(=O)NCCCCOS(C)(=O)=O` stands 59 to 60 °C.
Then `COCCCCCCCCCCC(=O)O`, with 31 to 32 °C.
Compound `CC(C)(C)OC(=O)NC(=Cc1ncoc1C(C)(C)C)C(=O)OC(C)(C)C` had a melting point of 170 to 172 °C.
With `CC(=O)N1CCN(c2ccc(N)cc2)CC1`, the melting point lay in the range of 142 to 144 °C.
In turn, `C=C(Cl)C(=O)Nc1ccc(Cl)cc1` gave a melting point of 105 to 106 °C.
In the case of `Cc1cn(C2CC(O)C(CO[Si](C)(C)C(C)(C)C)O2)c(=O)[nH]c1=O` (centres undefined), the melting point lay within 193 to 194 °C.
Under `C[C@]12CCC(=O)C=C1CC[C@@H]2c1cn(Cc2ccccc2)nn1` stands 122 to 125 °C; under `COc1ccc(-c2cc(=Nc3c(C)cc(C)cc3C)n(C)c(=O)n2C)cc1S(C)=O` (centres undefined), 125 to 135 °C; under `O=C(CNc1ccccc1Cl)Nc1c(Cl)ccc2nc(N3CC[C@@H](O)C3)ccc12`, 215 to 219 °C.
Then `O=C(CCc1ccc(Br)cc1)Cn1ccnc1`, with 71 to 73 °C; and `CC(C)N(C)c1cc2c(cc1Cl)NC(=O)CC(c1cccc(-n3nncc3CO)c1)=N2`, with 207 °C; and `O=C1NCN(c2ccccc2)C12CCN(CCCn1c(=O)[nH]c3ccccc31)CC2`, with 228 °C.
Under `O=[N+]([O-])c1ccc2c(ccn2Cc2ccncc2)c1` stands 134 to 136 °C; under `N#Cc1ccc(Oc2ccc(CC(=O)OCc3ccccc3)cc2)nc1`, 96 to 97 °C.
Take `CN(C)c1ccc(O)c2c1CC1CC3C(N(C)C)C(O)=C(C(N)=O)C(=O)C3(O)C(O)=C1C2=O` (centres undefined): the melting point turned out to be 113 °C.
Under `CC(C)C[C@@H](CO)NC(=O)N1C(=O)C(OC(=O)N2CCN(c3ccncc3)CC2)(c2ccccc2OC(C)C)c2cc(Cl)ccc21` (some centres undefined) stands 160 to 164 °C.
The compound `Fc1cc(F)c(-c2c(F)nc3nncnc3c2F)c(F)c1` showed a melting point of 160 to 161 °C.
Then `N=C(NO)c1cccc(COC(=O)c2cc3ccccc3n2Cc2cccc(C(=N)NO)c2)c1`, with 114 to 116 °C; and `CC[C@@H]1NC(C)(C)CO[C@@]1(O)c1cccc(Cl)c1`, with 160 to 161 °C; and `Cn1nnnc1-c1cn(C)c2ccc(F)cc2c1=O`, with 260 to 261 °C.
Under `NNC(=O)c1ccc(OC(F)(F)C(F)(F)F)cc1` stands 117 to 120 °C; under `CC(C)C1(C)N=C(c2ncc(C=O)cc2C(=O)O)NC1=O` (centres undefined), 187 to 198 °C; under `CCC(Oc1ccc(C(C)(C)CC)cc1C(C)(C)CC)C(=O)Nc1cc(O)c(NC(=O)c2ccccc2)cc1Cl` (centres undefined), 190 to 191 °C.
Under `CC(=O)N(NC(N)=S)c1ccc([N+](=O)[O-])cc1` stands 242 °C; under `CCCCc1nc(Cl)c(C(=O)N2CCCC2)n1Cc1ccc2oc(-c3ccccc3-c3nnn[nH]3)c(Br)c2c1`, 120 to 122 °C.
For `N#Cc1cc2n(c1)CCc1ccccc1C2=O`, the melting point lay in the range of 146 to 147 °C.
Then `C=CCOc1ccc(C(=O)CC(C)(C#N)c2ccc(OC)cc2OC)cc1` (centres undefined), with 77.8 to 78.5 °C; and `COc1cc(Nc2c(C#N)cnc3cc4cc(OCCN5CCOCC5)c(OC)cc4cc23)c(Cl)cc1F`, with 206 to 222 °C; and `Oc1c(Br)cc(Cl)cc1Cc1cc(F)cc(Cc2cc(Cl)cc(Br)c2O)c1O`, with 164 °C.
Under `CCC(CC)Oc1cc(C)nc2c1[nH]c(=O)n2-c1c(C)cc(C)cc1C` stands 184 to 186 °C; under `Cc1noc(-c2cc(O)c(O)c([N+](=O)[O-])c2)n1`, 201 to 202 °C.
Take `CCOC(=O)c1ccc(/C=C(\C)c2cc3c(s2)C(C)(C)CCC3(C)C)nc1`: the melting point was 83 to 84 °C.
With `CCOC(=O)N1CCN2c3ccccc3Cc3ccccc3C2C1` (centres undefined), the melting point was 108 to 110 °C.
Compound `COc1cc(CC(C)(C)NC(=O)c2ccc(=O)n(-c3ccc4cc(C)ccc4n3)c2)cc2c1OC(C)(C)C2` displayed a melting point of 192 to 193 °C.
As to `CC(C)CC(NC(=O)CCc1ccccc1)C(=O)N[C@@H](Cc1ccccc1)C(=O)CSCc1ccco1` (some centres undefined), the melting point was in the range of 117 to 119 °C.
Then `CC(C)(C)c1cc(-c2nnc(C(N)=S)s2)cc(C(C)(C)C)c1O`, with 215 to 216 °C; and `CCNc1ncc(Nc2ccc(Cl)cc2)nc1-n1nc(C)cc1C`, with 122 to 124 °C.
Under `O=C(CCCN1CCC(c2ccc(Cl)cc2)CC1)c1ccc(CN2CCCC2)cc1` stands 63 to 65 °C; under `O=C(CCCI)ON1C(=O)CCC1=O`, 86 to 87 °C; under `C=CCNC(=O)Nc1nn(Cc2ccccc2)cc1C(=O)OCC`, 77 to 78 °C.
Then `NNC(=O)C(CC1CC2CCN1CC2)(c1ccccc1)c1ccccc1` (centres undefined), with 158 to 160 °C.
`CCOC(=O)c1sc2nc(C(C)C)ccc2c1N` had a melting point of 161 to 162 °C.
Then `CCC(CC)CCOCCCCCCNCC(O)c1ccc(O)c(NS(C)(=O)=O)c1` (centres undefined), with 69 to 71 °C; and `CCCCCCCCCCCCCCCCCNC(=O)O[C@@H]1CCO[C@H]1COCc1ccccc1` (relative stereo), with 54 to 56 °C.
Under `O=C(O)CS(=O)(=O)Nc1ccc(F)cc1C(F)(F)F` stands 120 to 121 °C; under `OC(CCN1CCN(c2ccccc2)CC1)c1ccccc1` (centres undefined), 85 to 87 °C.

The melting point is the temperature of the solid-liquid transition.

The values are drawn from a melting point compilation (Tetko et al.; mined from patent text by program, amines drawn as free bases though some values may be those of a salt).
